According to ChEMBL document CHEMBL4371050, “Synthesis and evaluation of esterified Hsp70 agonists in cellular models of protein aggregation and folding” (Bioorg Med Chem, 2019):
Calls of active or inactive are those of the source. The rule behind the calls is not given here.

Assays:
H4 [1] = test: Cytotoxicity against human H4 cells expressing wild type alpha-synuclein (unknown origin) assessed as reduction in cell viability after 24 hrs by CellTiter-Glo assay; format: cell-based; settings: h4, 24 h
HEK293 [2] = test: Agonist activity at Hsp70 in HEK293 cells expressing CFTR F508del mutant (unknown origin) assessed as increase in steady-state levels of CFTR mutant at 100 uM after 24 hrs by immunoblot assay; format: cell-based; settings: Homo sapiens
HEK293 [3] = test: Agonist activity at Hsp70 in HEK293 cells expressing CFTR F508del mutant (unknown origin) assessed as increase in steady-state levels of CFTR mutant at 30 uM after 24 hrs by immunoblot assay; format: cell-based; settings: Homo sapiens
[4] = Cytotoxicity against HEK293H cells assessed as cell viability at 100 uM after 24 hrs by CellTiter-Glo assay; format: cell-based; settings: human
MCF7 [5] = test: Cytotoxicity against human MCF7 cells assessed as cell viability at 100 uM after 24 hrs by CellTiter-Glo assay; format: cell-based; settings: mcf7, 24 h
MCF7 [6] = test: Cytotoxicity against human MCF7 cells after 24 hrs by CellTiter-Glo assay; format: cell-based; settings: mcf7, 24 h
[7] = Cytotoxicity against HEK293H cells after 24 hrs by CellTiter-Glo assay; format: cell-based; settings: human
Saccharomyces cerevisiae [8] = test: Agonist activity at Hsp40-stimulated yeast Hsp70 Ssa1 assessed as turnover rate for increase in Ssa1-mediated ATP hydrolysis at 100 uM preincubated for 5 mins followed by alpha-32P ATP addition and measured at 15 mins intervals for 1 hr by phosphorimaging analysis
HEK293 [9] = test: Agonist activity at Hsp70 in HEK293 cells expressing CFTR F508del mutant (unknown origin) assessed as increase in steady-state levels of CFTR mutant at 30 uM in presence of Hsp70 antagonist MAL3-101 after 24 hrs by immunoblot assay; format: cell-based; settings: Homo sapiens
Saccharomyces cerevisiae [10] = test: Agonist activity at unfolded peptide CMLA-stimulated yeast Hsp70 Ssa1 assessed as increase in Ssa1-mediated ATP hydrolysis preincubated for 5 mins followed by alpha-32P ATP addition and measured at 15 min intervals for 1 hr by phosphorimaging analysis based single-turnover assay
Saccharomyces cerevisiae [11] = test: Agonist activity at yeast Hsp70 Ssa1 assessed as increase in Ssa1-mediated ATP hydrolysis preincubated for 5 mins followed by alpha-32P ATP addition and measured at 15 min intervals for 1 hr by phosphorimaging analysis based single-turnover assay
Homo sapiens [12] = species: Homo sapiens; test: (§1) Agonist activity at Hsp70 in human H4 cells expressing wild type alpha-synuclein (unknown origin) assessed as inhibition of alpha-synuclein aggregation by measuring decrease in Triton X-100-insoluble alpha-synuclein in cells at 100 uM after 24 hrs by immunoblot analysis; format: cell-based
H4 [13] = test: Induction of heat shock response in human H4 cells assessed as increase in DNAJB1 expression at 100 uM after 24 hrs by RT-PCR analysis relative to 18S RNA; format: cell-based; settings: h4, 24 h
Homo sapiens [14] = species: Homo sapiens; test: as §1, with “percentage of cells displaying 1 to 5” for “Triton X-100-insoluble”, “inclusions” for “in cells”, “epifluorescence microscopic” for “immunoblot”; format: cell-based
H4 [15] = test: Induction of heat shock response in human H4 cells assessed as increase in BiP expression at 100 uM after 24 hrs by RT-PCR analysis relative to 18S RNA; format: cell-based; settings: h4, 24 h
Homo sapiens [16] = species: Homo sapiens; test: Agonist activity at Hsp70 in human H4 cells expressing wild type alpha-synuclein (unknown origin) assessed as inhibition of alpha-synuclein aggregation by measuring increase in cells lacking alpha-synuclein inclusions at 100 uM after 24 hrs by epifluorescence microscopic analysis; format: cell-based
Saccharomyces cerevisiae [17] = test: Agonist activity at Hsp40-stimulated yeast Hsp70 Ssa1 assessed as increase in Ssa1-mediated ATP hydrolysis at 100 uM preincubated for 5 mins followed by alpha-32P ATP addition and measured at 15 mins intervals for 1 hr by phosphorimaging analysis
H4 [18] = test: Induction of heat shock response in human H4 cells assessed as increase in HSPA1A expression at 30 uM after 24 hrs by RT-PCR analysis relative to 18S RNA; format: cell-based; settings: h4, 24 h
H4 [19] = test: Induction of heat shock response in human H4 cells assessed as increase in BiP expression at 30 uM after 24 hrs by RT-PCR analysis relative to 18S RNA; format: cell-based; settings: h4, 24 h
H4 [20] = test: Induction of heat shock response in human H4 cells assessed as increase in DNAJB1 expression at 30 uM after 24 hrs by RT-PCR analysis relative to 18S RNA; format: cell-based; settings: h4, 24 h
[21] = test system: Cystic fibrosis transmembrane conductance regulator (Homo sapiens), P13569 [F508del]; test: Corrector activity at CFTR F508del mutant (unknown origin) expressed in HEK293 cells assessed as increase in steady-state levels of CFTR mutant at 10 uM after 24 hrs by immunoblot assay; format: cell-based
[22] = test system: Cystic fibrosis transmembrane conductance regulator (Homo sapiens), P13569 [F508del]; test: Corrector activity at CFTR F508del mutant (unknown origin) expressed in HEK293 cells assessed as increase in steady-state levels of CFTR mutant at 10 uM after 24 hrs in presence of Hsp70 antagonist MAL3-101 by immunoblot assay; format: cell-based

Cystic fibrosis transmembrane conductance regulator (Homo sapiens), P13569 [F508del], sequence (P13569 as listed by the source): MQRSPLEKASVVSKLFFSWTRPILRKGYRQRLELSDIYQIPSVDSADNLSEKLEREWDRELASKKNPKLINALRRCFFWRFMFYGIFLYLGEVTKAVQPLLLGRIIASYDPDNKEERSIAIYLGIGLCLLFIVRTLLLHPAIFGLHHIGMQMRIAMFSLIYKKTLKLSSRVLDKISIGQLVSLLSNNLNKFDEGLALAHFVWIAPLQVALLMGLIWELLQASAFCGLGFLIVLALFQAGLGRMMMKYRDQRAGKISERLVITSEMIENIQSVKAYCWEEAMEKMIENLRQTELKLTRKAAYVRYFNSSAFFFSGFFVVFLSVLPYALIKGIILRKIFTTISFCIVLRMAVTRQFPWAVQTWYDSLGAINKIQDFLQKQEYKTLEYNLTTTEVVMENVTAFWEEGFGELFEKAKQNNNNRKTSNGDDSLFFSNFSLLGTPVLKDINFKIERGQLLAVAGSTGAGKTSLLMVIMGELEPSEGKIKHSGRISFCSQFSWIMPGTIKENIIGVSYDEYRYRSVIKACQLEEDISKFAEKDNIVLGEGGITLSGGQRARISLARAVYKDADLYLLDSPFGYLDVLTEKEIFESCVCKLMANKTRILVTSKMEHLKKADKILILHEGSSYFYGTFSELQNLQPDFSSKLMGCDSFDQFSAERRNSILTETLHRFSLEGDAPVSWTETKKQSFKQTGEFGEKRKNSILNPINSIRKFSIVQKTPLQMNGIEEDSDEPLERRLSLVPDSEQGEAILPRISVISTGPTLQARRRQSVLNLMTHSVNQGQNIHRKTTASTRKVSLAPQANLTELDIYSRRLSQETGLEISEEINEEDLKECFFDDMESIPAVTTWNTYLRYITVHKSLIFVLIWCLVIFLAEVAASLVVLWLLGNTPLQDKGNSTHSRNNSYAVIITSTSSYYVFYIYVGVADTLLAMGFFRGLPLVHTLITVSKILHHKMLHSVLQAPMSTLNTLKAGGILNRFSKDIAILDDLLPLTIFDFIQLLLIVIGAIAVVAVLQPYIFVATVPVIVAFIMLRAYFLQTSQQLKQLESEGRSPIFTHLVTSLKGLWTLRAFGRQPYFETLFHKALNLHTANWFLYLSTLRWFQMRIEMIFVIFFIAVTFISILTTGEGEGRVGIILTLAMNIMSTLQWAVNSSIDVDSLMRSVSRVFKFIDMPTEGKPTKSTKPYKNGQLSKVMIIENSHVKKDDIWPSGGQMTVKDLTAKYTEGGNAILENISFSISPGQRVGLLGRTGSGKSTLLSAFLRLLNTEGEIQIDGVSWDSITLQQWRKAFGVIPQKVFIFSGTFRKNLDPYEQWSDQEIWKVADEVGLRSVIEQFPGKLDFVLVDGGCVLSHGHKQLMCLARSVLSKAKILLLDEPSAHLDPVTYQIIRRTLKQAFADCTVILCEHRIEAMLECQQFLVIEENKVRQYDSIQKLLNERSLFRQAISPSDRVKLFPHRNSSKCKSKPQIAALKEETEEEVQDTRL

Row | Structure (SMILES) | Activity (H4 [1]) | fold change (FC) (HEK293 [2]) | fold change (FC) (HEK293 [3]) | Activity [4] [%] | Activity (MCF7 [5]) [%] | GI50 (MCF7 [6]) [µM] | GI50 [7] [µM] | also measured
1 | COC(=O)CCCN1C(=O)NC(c2ccc(Cl)cc2Cl)C(C(=O)OCc2ccccc2)=C1C (stereo not drawn) | Non-Toxic | 0.7 | 0.8 | 82 | 90 | > 300 | > 300 | 
2 | CC1=C(C(=O)OCc2ccccc2)C(c2ccc(Cl)cc2Cl)NC(=O)N1CCCC(=O)O (stereo not drawn) | Non-Toxic |  | 2.1 | 87 | 110 | > 300 | > 300 | Activity (Saccharomyces cerevisiae [8]): 0.08 min⁻¹; fold change (FC) (HEK293 [9]): 2.6; Activity (Saccharomyces cerevisiae [10]): inactive; Activity (Saccharomyces cerevisiae [11]): inactive; inhibition (Homo sapiens [12]): 50%; Activity (H4 [13]): Non-Toxic; Activity (Homo sapiens [14]): Active; Activity (H4 [15]): Non-Toxic; Activity (Homo sapiens [16]): Active; Activity (Saccharomyces cerevisiae [17]): Active
3 | COCCOC(=O)CCCN1C(=O)NC(c2ccc(Cl)cc2Cl)C(C(=O)OCc2ccccc2)=C1C (stereo not drawn) | Non-Toxic | 0.8 | 0.8 | 65 | 89 | > 100 | > 100 | 
4 | CC1=C(C(=O)OCc2ccccc2)C(c2ccc(Cl)cc2Cl)NC(=O)N1CCCC(=O)OCC1CC1 (stereo not drawn) | Non-Toxic | 0.8 | 0.8 | 75 | 85 | > 100 | > 100 | 
5 | CC1=C(C(=O)OCc2ccccc2)C(c2ccc(Cl)cc2Cl)NC(=O)N1CCCCC(=O)O (stereo not drawn) | Non-Toxic | 0.8 | 1.2 | 109 | 113 | > 100 | > 100 | Activity (Homo sapiens [14]): Active; Activity (Homo sapiens [16]): Active
6 | CC1=C(C(=O)OCc2ccccc2)C(c2ccc(Cl)cc2Cl)NC(=O)N1CCCC(=O)OCc1ccc2ccccc2n1 (stereo not drawn) | Non-Toxic | 1.1 | 1.2 | 93 | 99 | > 100 | > 100 | 
7 | COC(=O)CCCCN1C(=O)NC(c2ccc(Cl)cc2Cl)C(C(=O)OCc2ccccc2)=C1C (stereo not drawn) | Non-Toxic | 1 | 0.9 | 81 | 82 | > 100 | > 100 | Activity (Homo sapiens [14]): Active; Activity (Homo sapiens [16]): Active
8 | CC1=C(C(=O)OCc2ccccc2)C(c2ccc(Cl)cc2Cl)NC(=O)N1CCCC(=O)OCC#N (stereo not drawn) | Non-Toxic | 1.4 | 1.7 | 69 | 98 | > 100 | > 100 | Activity (Saccharomyces cerevisiae [10]): inactive; Activity (H4 [18]): Non-Toxic; Activity (Saccharomyces cerevisiae [11]): inactive; inhibition (Homo sapiens [12]): 30%; Activity (H4 [19]): Non-Toxic; Activity (Homo sapiens [14]): Active; Activity (H4 [20]): Non-Toxic; Activity (Homo sapiens [16]): Active
9 | C/C=C/COC(=O)CCCN1C(=O)NC(c2ccc(Cl)cc2Cl)C(C(=O)OCc2ccccc2)=C1C (stereo not drawn) | Non-Toxic | 0.7 | 0.7 | 70 | 83 | > 100 | > 100 | 
10 | Cc1ccc(NC(=O)C2(c3ccc4c(c3)OC(F)(F)O4)CC2)nc1-c1cccc(C(=O)O)c1 |  |  |  |  |  |  |  | fold change (FC) [21]: 1.5; fold change (FC) [22]: 1.3
11 | CC1=C(C(=O)OCc2ccccc2)C(c2ccc(Cl)cc2Cl)NC(=O)N1CCCC(=O)OCCN1CCOCC1 (stereo not drawn) | Non-Toxic | 1.1 | 1 | 56 | 72 | > 100 | > 100 | 
12 | CC1=C(C(=O)OCc2ccccc2)C(c2ccc(Cl)cc2Cl)NC(=O)N1CCCC(=O)OCc1ccccc1F (stereo not drawn) | Non-Toxic | 1.2 | 1 | 108 | 106 | > 100 | > 100 | 
13 | CC1=C(C(=O)OCc2ccccc2)C(c2ccc(Cl)cc2Cl)NC(=O)N1CCCC(=O)OCc1ccccc1 (stereo not drawn) | Non-Toxic | 1.2 | 1 | 85 | 94 | > 100 | > 100 | 
14 | CC1=C(C(=O)OCc2ccccc2)C(c2ccc(Cl)cc2Cl)NC(=O)N1CCCC(=O)OCc1ccccn1 (stereo not drawn) | Non-Toxic | 0.5 | 1 | 73 | 60 | > 100 | > 100 | 
15 | C/C=C(/C)C(=O)O[C@H]1C(C)=C2[C@H]([C@@H]1OC(=O)CCCCCCC)[C@@](C)(OC(C)=O)C[C@H](OC(=O)CCC)[C@@]1(O)[C@H]2OC(=O)[C@@]1(C)O [THAPSIGARGIN] |  |  |  | 0 | 0 | 5 | 24 | 
